Key:
HisMBP-Alg44PilZ = molecular target: T1, HisMBP-Alg44PilZ (Pseudomonas aeruginosa, UniProt Q9HY69); test: DRaCALA competition of cold nucleotides with 32P-cdiGMP binding to HisMBP-Alg44PilZ; set-up: species or system P. aeruginosa; details: 1 mM cold nucleotide (400-fold molar excess over protein), 4 nM 32P-cdiGMP
T1 construct: His-MBP-Alg44PilZ was varied from 100 μM to 6 nM; made in house; host or cells: E. coli BL21(DE3)
Protocol: FIG. 2. Detection of specific protein-ligand interactions by DRaCALA. (A) DRaCALA images of interactions between purified proteins (20 μM) incubated with 500 nM ^14C-cAMP, 4 nM ^32P-ATP, or 4 nM ^32P-cdiGMP. Protein-ligand mixtures were spotted on nitrocellulose and allowed to dry prior to imaging using a Fuji FLA7100 phosphorimager. Cognate protein-nucleotide combinations are indicated by arrowheads. MBP was used as a negative control. (B) DRaCALA images of competition assays assessing the ability of 1 mM of the indicated cold nucleotides to compete with binding interactions between 4 nM ^32P-cdiGMP and 2.5 μM HisMBP-Alg44PilZ. (C) Graph of fraction bound for each sample in […] with averages indicated by a horizontal bar. NC indicates no competitor. P values were determined by a Student's t-test for significant differences when compared to the no-competitor (NC) control for three independent experiments. For total intensity of each DRaCALA spot in FIGS. 2A and 2B, see Tables 1 and 2, respectively.
Radiolabeled ligands were incubated with each of the proteins and the mixtures were spotted on nitrocellulose. After spreading by capillary action, membranes were dried and quantitated by phosphorimager. […] Each of the radiolabel signals from MBP mixtures was distributed by capillary action (FIG. 2A). […] The specificity of Alg44PilZ binding to cdiGMP was further tested by competition with excess unlabeled nucleotides (400-fold molar excess relative to the Alg44PilZ protein). Alg44PilZ binding to ^32P-cdiGMP was abolished by cdiGMP, but not by cGMP, GMP, GDP, GTP, ATP, CTP or UTP as was previously described (FIG. 2B). The FB for cdiGMP was 0.31±0.07, which was reversed by competition with unlabeled cdiGMP to the background level of 0.04±0.01 (FIG. 2C).
(§1) Protein or whole cell lysates in 1× cdiGMP binding buffer (20 μl) was mixed with 4 nM of radiolabeled nucleotide and allowed to incubate for 10 minutes at room temperature. Radiolabeled nucleotide was competed away by cold nucleotides in concentrations and for times indicated. Purified proteins were tested in technical replicates. Whole cell lysates in FIG. 4 and FIG. 12 were tested in biological triplicates. Whole cell lysates in FIG. 5 were tested in technical replicates. These mixtures were pipetted (2.5-5 μl) onto dry, untreated nitrocellulose (GE Healthcare) in triplicate and allowed to dry completely before quantification. An FLA7100 Fujifilm Life Science Phosphorimager was used to detect luminescence following a 5-minute exposure of blotted nitrocellulose to phosphorimager film. Data was quantified using Fujifilm Multi Gauge software v3.0.

[1] = molecular target: T2, P. aeruginosa Alg44PilZ (His-MBP-Alg44PilZ) (Pseudomonas aeruginosa, UniProt Q9HY69); test: biochemical; type: binding; details: 20 μM purified protein; 500 nM 14C-cAMP, 4 nM 32P-ATP or 4 nM 32P-cdiGMP
T2 construct: His-MBP-Alg44PilZ was varied from 100 μM to 6 nM; made in house; host or cells: E. coli BL21(DE3)
Text: DRaCALA exploits the ability of nitrocellulose membranes to preferentially sequester proteins over small molecule ligands. When a mixture of protein and radiolabeled ligand is spotted onto a dry nitrocellulose membrane, protein and bound ligand are immobilized at the site of contact while free ligand is mobilized by capillary action with the liquid phase (FIG. 1A). DRaCALA is a rapid assay, as the capillary action can be completed in less than 5 seconds. […] Because capillary action distributes the unbound ligand throughout the mobile phase, the calculation for the fraction bound (FB) can be corrected for this background (see below for edge effects at the solvent front and annulation of the protein). Therefore, FB is defined by the equation in FIG. 1B, where Iinner is the intensity of signal in the area with protein (inner circle) and Itotal is the total signal of the entire sample (outer circle). The Iinner signal consists of both ligand bound to protein and unbound ligand that has not mobilized beyond the area of the inner circle, which we define as Ibackground. Ibackground can be calculated by subtracting the signal intensity of the Iinner from the total ligand Itotal and adjusting for the relative areas of the inner (Ainner) and outer circles (Atotal) (FIG. 1B).
(§2) Radiolabeled ligands were incubated with each of the proteins and the mixtures were spotted on nitrocellulose. After spreading by capillary action, membranes were dried and quantitated by phosphorimager. […] The specificity of Alg44PilZ binding to cdiGMP was further tested by competition with excess unlabeled nucleotides (400-fold molar excess relative to the Alg44PilZ protein).
Kd can be measured by altering either the protein or ligand concentrations in titration experiments; since DRaCALA detects only the ligand mobility, ligand concentrations can be always held constant. […] Since the assay is completed in less than 5 seconds, DRaCALA can also be used to determine the koff for those protein-ligand complexes with slower off rates. koff was determined for cdiGMP and Alg44PilZ by spotting at the indicated time points after the addition of 1 mM unlabeled cdiGMP to a pre-incubated mixture of Alg44PilZ and ^32P-cdiGMP (FIG. 3C). […] Both edge and annulation effects are explained in FIG. 8. The edge effect is due to evaporation of the solvent during the time of the experiment, and is dependent on the humidity of the local environment around the nitrocellulose support. The evaporation results in a smaller total area (Atotal observed in FIG. 8A) and leads to an increased value in the calculated Ibackground. As a secondary correction for the edge effect, the fraction bound determined for spotted ligand in the absence of protein can be subtracted from all samples in parallel (FIG. 8B).

E. coli CRP = molecular target: T3, E. coli CRP (Escherichia coli, UniProt P0ACJ8); test: DRaCALA binding of radiolabeled nucleotides to purified CRP; details: 20 μM purified protein; 500 nM 14C-cAMP, 4 nM 32P-ATP or 4 nM 32P-cdiGMP
T3 construct: His; made in house
Protocol: as §2, §1

E. coli NtrB = E. coli NtrB (Escherichia coli, UniProt P0AFB5); test: DRaCALA binding of radiolabeled nucleotides to purified NtrB; details: 20 μM purified protein; 500 nM 14C-cAMP, 4 nM 32P-ATP or 4 nM 32P-cdiGMP
Protocol: as §2, §1

T1 sequence (Q9HY69 16-116): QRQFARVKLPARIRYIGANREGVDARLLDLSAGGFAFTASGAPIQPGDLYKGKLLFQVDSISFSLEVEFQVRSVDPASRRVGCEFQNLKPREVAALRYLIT
T2 sequence (Q9HY69 16-116): as above
E. coli NtrB, sequence (P0AFB5 whole entry): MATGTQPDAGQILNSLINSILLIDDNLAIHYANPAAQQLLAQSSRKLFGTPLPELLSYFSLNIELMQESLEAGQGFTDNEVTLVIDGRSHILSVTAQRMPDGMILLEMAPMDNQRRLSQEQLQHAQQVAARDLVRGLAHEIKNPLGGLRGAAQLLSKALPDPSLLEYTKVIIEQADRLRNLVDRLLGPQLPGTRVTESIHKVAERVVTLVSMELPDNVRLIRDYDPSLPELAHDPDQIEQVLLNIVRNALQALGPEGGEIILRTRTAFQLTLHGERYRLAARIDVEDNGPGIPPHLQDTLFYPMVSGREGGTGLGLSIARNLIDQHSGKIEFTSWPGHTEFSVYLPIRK
T3 sequence (P0ACJ8 whole entry): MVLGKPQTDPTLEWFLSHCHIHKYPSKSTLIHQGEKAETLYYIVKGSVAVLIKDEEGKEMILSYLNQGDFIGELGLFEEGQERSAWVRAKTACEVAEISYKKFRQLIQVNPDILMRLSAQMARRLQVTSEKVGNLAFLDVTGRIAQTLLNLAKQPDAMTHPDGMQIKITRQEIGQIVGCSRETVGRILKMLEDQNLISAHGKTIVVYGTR

| Structure (SMILES) | Alg44PilZ binding to 32P-cdiGMP abolished by unlabeled nucleotide (HisMBP-Alg44PilZ) | binding to Alg44PilZ (sequestration of radiolabel signal) [1] | binding to CRP (sequestration of radiolabel signal) (E. coli CRP) | binding to NtrB (sequestration of radiolabel signal) (E. coli NtrB) |
| --- | --- | --- | --- | --- |
| Nc1nc2c(ncn2[C@@H]2O[C@H](COP(=O)(O)O)[C@@H](O)[C@H]2O)c(=O)[nH]1 [GMP] | not |  |  |  |
| O=c1ccn([C@@H]2O[C@H](COP(=O)(O)OP(=O)(O)OP(=O)(O)O)[C@@H](O)[C@H]2O)c(=O)[nH]1 [UTP] | not |  |  |  |
| Nc1nc2c(ncn2[C@@H]2O[C@H](COP(=O)(O)OP(=O)(O)OP(=O)(O)O)[C@@H](O)[C@H]2O)c(=O)[nH]1 [GTP] | not |  |  |  |
| Nc1nc2c(ncn2[C@@H]2O[C@H](COP(=O)(O)OP(=O)(O)O)[C@@H](O)[C@H]2O)c(=O)[nH]1 [GDP] | not |  |  |  |
| Nc1nc2c(ncn2[C@@H]2O[C@@H]3COP(=O)(O)O[C@H]3[C@H]2O)c(=O)[nH]1 [cGMP] | not |  |  |  |
| Nc1ccn([C@@H]2O[C@H](COP(=O)(O)OP(=O)(O)OP(=O)(O)O)[C@@H](O)[C@H]2O)c(=O)n1 [CTP] | not |  |  |  |
| Nc1ncnc2c1ncn2[C@@H]1O[C@H](COP(=O)(O)OP(=O)(O)OP(=O)(O)O)[C@@H](O)[C@H]1O [ATP] | not | not | did not bind | bound |

Reference: patent publication US20130337579A1, “Methods for Determining Protein Ligand Binding” (UNIVERSITY OF MARYLAND, COLLEGE PARK, priority 2010, published 2013)
